This passage reports solubility results from ChEMBL document CHEMBL4373655, “Aminopyrimidine-galactose hybrids are highly selective galectin-3 inhibitors” (Medchemcomm, 2019).

A short description of data set [1]: Solubility of the compound in DMSO up to 900 uM. The class given is physicochemical.
A short description of data set [2]: Solubility of the compound in DMSO at >[…] uM. The class given is physicochemical.

Consider `CO[C@@H]1O[C@H](CO)[C@H](O)[C@H](OCc2cc(-c3cccc(F)c3)nc(N)n2)[C@H]1O`, for which the figures for the solubility result in data set [1] and in data set [2] were “Soluble” and “Insoluble”, respectively.
Taken in the same sequence, the figures for `CO[C@@H]1O[C@H](CO)[C@H](O)[C@H](OCc2cc(-c3cccc(-c4ccccc4)c3)nc(N)n2)[C@H]1O` were “Soluble” and “Insoluble”.
Regarding `CO[C@@H]1O[C@H](CO)[C@H](O)[C@H](OCc2cc(-c3ccccc3F)nc(N)n2)[C@H]1O`, the solubility result in data set [1] was “Soluble”; in data set [2] it was “Insoluble”.
As to `CO[C@@H]1O[C@H](CO)[C@H](O)[C@H](OCc2cc(-c3cccc(C)c3)nc(N)n2)[C@H]1O`, the solubility entry in data set [1] is recorded as “Soluble”; in data set [2], “Insoluble”.
The like results for `CO[C@@H]1O[C@H](CO)[C@H](O)[C@H](OCc2cc(-c3ccc(C)cc3)nc(N)n2)[C@H]1O` were, in that order, “Soluble” and “Insoluble”.
The like results for `CO[C@@H]1O[C@H](CO)[C@H](O)[C@H](OCc2cc(-c3ccc(F)cc3)nc(N)n2)[C@H]1O` were, in that order, “Soluble” and “Insoluble”.
Taken in the same sequence, the figures for `CO[C@@H]1O[C@H](CO)[C@H](O)[C@H](OCc2cc(-c3ccc(Br)cc3)nc(N)n2)[C@H]1O` were “Soluble” and “Insoluble”.
Consider `CO[C@@H]1O[C@H](CO)[C@H](O)[C@H](OCc2cc(-c3ccc(-c4ccccc4)cc3)nc(N)n2)[C@H]1O`, for which the solubility result in data set [1] is “Soluble”; in data set [2], “Insoluble”.
The like results for `CO[C@@H]1O[C@H](CO)[C@H](O)[C@H](OCc2cc(-c3ccc4ccccc4c3)nc(N)n2)[C@H]1O` were, in that order, “Soluble” and “Insoluble”.
The like results for `CO[C@@H]1O[C@H](CO)[C@H](O)[C@H](OCc2cc(-c3cccc4ccccc34)nc(N)n2)[C@H]1O` were, in that order, “Soluble” and “Insoluble”.
Taken in the same sequence, the figures for `CO[C@@H]1O[C@H](CO)[C@H](O)[C@H](OCc2cc(-c3ccc(C(C)(C)C)cc3)nc(N)n2)[C@H]1O` were “Soluble” and “Insoluble”.
With `CO[C@@H]1O[C@H](CO)[C@H](O)[C@H](OCc2cc(-c3ccc(Cl)cc3)nc(N)n2)[C@H]1O`, the solubility entry was “Soluble” in data set [1] and “Insoluble” in data set [2].
`CO[C@@H]1O[C@H](CO)[C@H](O)[C@H](OCc2cc(-c3cccc(Cl)c3)nc(N)n2)[C@H]1O`: the figures for the solubility entry in data set [1] and in data set [2] were “Soluble” and “Insoluble”, respectively.
With `CO[C@@H]1O[C@H](CO)[C@H](O)[C@H](OCc2cc(-c3ccccc3)nc(N)n2)[C@H]1O`, the solubility entry in data set [1] is “Soluble”; in data set [2], “Insoluble”.
